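Following 48 hours of exposure in 96-well plates, responses at five concentrations were used to interpolate endpoints linearly. TGI: concentration producing complete growth inhibition.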
Tests used:
Experiment in all cases: inhibition of tumour cell growth, NCI panel, 48 h
786-0 renal = system: 786-0 renal
A549 NSCLC = system: A549 NSCLC
ACHN renal = system: ACHN renal
CAKI-1 renal = system: CAKI-1 renal
CCRF-CEM leukemia = system: CCRF-CEM leukemia
COLO 205 colon = system: COLO 205 colon
DLD-1 colon = system: DLD-1 colon
DMS 114 small cell lung = system: DMS 114 small cell lung
DMS 273 small cell lung = system: DMS 273 small cell lung
EKVX NSCLC = system: EKVX NSCLC
HCC-2998 colon = system: HCC-2998 colon
HCT-116 colon = system: HCT-116 colon
HCT-15 colon = system: HCT-15 colon
HL-60(TB) leukemia = system: HL-60(TB) leukemia
HOP-18 NSCLC = system: HOP-18 NSCLC
HOP-62 NSCLC = system: HOP-62 NSCLC
HOP-92 NSCLC = system: HOP-92 NSCLC
HT29 colon = system: HT29 colon
IGROV1 ovarian = system: IGROV1 ovarian
K-562 leukemia = system: K-562 leukemia
KM12 colon = system: KM12 colon
KM20L2 colon = system: KM20L2 colon
LXFL 529 NSCLC = system: LXFL 529 NSCLC
M14 melanoma = system: M14 melanoma
M19-MEL melanoma = system: M19-MEL melanoma
MOLT-4 leukemia = system: MOLT-4 leukemia
NCI-H226 lung = system: NCI-H226 lung
NCI-H23 lung = system: NCI-H23 lung
NCI-H460 lung = system: NCI-H460 lung
NCI-H522 lung = system: NCI-H522 lung
OVCAR-3 ovarian = system: OVCAR-3 ovarian
OVCAR-4 ovarian = system: OVCAR-4 ovarian
OVCAR-5 ovarian = system: OVCAR-5 ovarian
OVCAR-8 ovarian = system: OVCAR-8 ovarian
SF-268 CNS = system: SF-268 CNS
SF-295 CNS = system: SF-295 CNS
SF-539 CNS = system: SF-539 CNS
SK-MEL-28 melanoma = system: SK-MEL-28 melanoma
SK-MEL-5 melanoma = system: SK-MEL-5 melanoma
SK-OV-3 ovarian = system: SK-OV-3 ovarian
SN12C renal = system: SN12C renal
SNB-19 CNS = system: SNB-19 CNS
SNB-75 CNS = system: SNB-75 CNS
SNB-78 CNS = system: SNB-78 CNS
SR leukemia = system: SR leukemia
SW-620 colon = system: SW-620 colon
TK-10 renal = system: TK-10 renal
U251 CNS = system: U251 CNS
UACC-257 melanoma = system: UACC-257 melanoma
UACC-62 melanoma = system: UACC-62 melanoma
UO-31 renal = system: UO-31 renal
MALME-3M melanoma = system: MALME-3M melanoma
RPMI-8226 leukemia = system: RPMI-8226 leukemia
RXF 393 renal = system: RXF 393 renal
SK-MEL-2 melanoma = system: SK-MEL-2 melanoma
A498 renal = system: A498 renal
LOX IMVI melanoma = system: LOX IMVI melanoma

## C=C1CC(c2ccc(O)c(OC)c2)Oc2c(OC)cccc21 (configuration not stated)
786-0 renal
  TGI: > 100 µM
A549 NSCLC
  TGI: > 100 µM
ACHN renal
  TGI: > 100 µM
CAKI-1 renal
  TGI: > 100 µM
CCRF-CEM leukemia
  TGI: 93.7 µM
COLO 205 colon
  TGI: > 100 µM
DLD-1 colon
  TGI: > 100 µM
DMS 114 small cell lung
  TGI: 56.1 µM
DMS 273 small cell lung
  TGI: 55.2 µM
EKVX NSCLC
  TGI: > 100 µM
HCC-2998 colon
  TGI: > 100 µM
HCT-116 colon
  TGI: > 100 µM
HCT-15 colon
  TGI: > 100 µM
HL-60(TB) leukemia
  TGI: 49.9 µM
HOP-18 NSCLC
  TGI: > 100 µM
HOP-62 NSCLC
  TGI: > 100 µM
HOP-92 NSCLC
  TGI: 53.1 µM
HT29 colon
  TGI: > 100 µM
IGROV1 ovarian
  TGI: > 100 µM
K-562 leukemia
  TGI: 64.8 µM
KM12 colon
  TGI: > 100 µM
KM20L2 colon
  TGI: > 100 µM
LXFL 529 NSCLC
  TGI: > 100 µM
M14 melanoma
  TGI: > 100 µM
M19-MEL melanoma
  TGI: > 100 µM
MOLT-4 leukemia
  TGI: > 100 µM
NCI-H226 lung
  TGI: > 100 µM
NCI-H23 lung
  TGI: > 100 µM
NCI-H460 lung
  TGI: > 100 µM
NCI-H522 lung
  TGI: 49.5 µM
OVCAR-3 ovarian
  TGI: > 100 µM
OVCAR-4 ovarian
  TGI: > 100 µM
OVCAR-5 ovarian
  TGI: > 100 µM
OVCAR-8 ovarian
  TGI: > 100 µM
SF-268 CNS
  TGI: > 100 µM
SF-295 CNS
  TGI: > 100 µM
SF-539 CNS
  TGI: 52.2 µM
SK-MEL-28 melanoma
  TGI: > 100 µM
SK-MEL-5 melanoma
  TGI: > 100 µM
SK-OV-3 ovarian
  TGI: > 100 µM
SN12C renal
  TGI: > 100 µM
SNB-19 CNS
  TGI: > 100 µM
SNB-75 CNS
  TGI: > 100 µM
SNB-78 CNS
  TGI: > 100 µM
SR leukemia
  TGI: 61.3 µM
SW-620 colon
  TGI: > 100 µM
TK-10 renal
  TGI: > 100 µM
U251 CNS
  TGI: > 100 µM
UACC-257 melanoma
  TGI: > 100 µM
UACC-62 melanoma
  TGI: > 100 µM
UO-31 renal
  TGI: > 100 µM

## COC1OC(C)C(OC(=O)C(C)(C)C)C(OS(=O)(=O)c2ccc(C)cc2)C1OS(=O)(=O)c1ccc(C)cc1 (configuration not stated)
786-0 renal
  TGI: > 100 µM
A549 NSCLC
  TGI: > 100 µM
ACHN renal
  TGI: > 100 µM
CAKI-1 renal
  TGI: > 100 µM
CCRF-CEM leukemia
  TGI: > 100 µM
COLO 205 colon
  TGI: > 100 µM
DLD-1 colon
  TGI: > 100 µM
DMS 114 small cell lung
  TGI: > 100 µM
DMS 273 small cell lung
  TGI: > 100 µM
HCC-2998 colon
  TGI: > 100 µM
HCT-116 colon
  TGI: > 100 µM
HCT-15 colon
  TGI: > 100 µM
HL-60(TB) leukemia
  TGI: > 100 µM
HOP-18 NSCLC
  TGI: > 100 µM
HOP-62 NSCLC
  TGI: > 100 µM
HT29 colon
  TGI: > 100 µM
IGROV1 ovarian
  TGI: > 100 µM
K-562 leukemia
  TGI: > 100 µM
KM12 colon
  TGI: > 100 µM
KM20L2 colon
  TGI: > 100 µM
LXFL 529 NSCLC
  TGI: > 100 µM
M14 melanoma
  TGI: > 100 µM
M19-MEL melanoma
  TGI: > 100 µM
MALME-3M melanoma
  TGI: > 100 µM
MOLT-4 leukemia
  TGI: > 100 µM
NCI-H226 lung
  TGI: > 100 µM
NCI-H23 lung
  TGI: > 100 µM
NCI-H460 lung
  TGI: > 100 µM
NCI-H522 lung
  TGI: > 100 µM
OVCAR-3 ovarian
  TGI: > 100 µM
OVCAR-4 ovarian
  TGI: > 100 µM
OVCAR-5 ovarian
  TGI: > 100 µM
OVCAR-8 ovarian
  TGI: > 100 µM
RPMI-8226 leukemia
  TGI: > 100 µM
RXF 393 renal
  TGI: > 100 µM
SF-268 CNS
  TGI: > 100 µM
SF-295 CNS
  TGI: > 100 µM
SF-539 CNS
  TGI: > 100 µM
SK-MEL-2 melanoma
  TGI: > 100 µM
SK-MEL-28 melanoma
  TGI: > 100 µM
SK-MEL-5 melanoma
  TGI: > 100 µM
SK-OV-3 ovarian
  TGI: > 100 µM
SN12C renal
  TGI: > 100 µM
SNB-19 CNS
  TGI: > 100 µM
SNB-75 CNS
  TGI: > 100 µM
SNB-78 CNS
  TGI: > 100 µM
SR leukemia
  TGI: > 100 µM
SW-620 colon
  TGI: > 100 µM
U251 CNS
  TGI: > 100 µM
UACC-257 melanoma
  TGI: > 100 µM
UO-31 renal
  TGI: > 100 µM

## CN(C)CC/C(=N\Nc1c(F)c(F)c(F)c(F)c1F)c1ccccc1
786-0 renal
  TGI: > 100 µM
A498 renal
  TGI: > 100 µM
A549 NSCLC
  TGI: > 100 µM
ACHN renal
  TGI: > 100 µM
CCRF-CEM leukemia
  TGI: 95.5 µM
COLO 205 colon
  TGI: > 100 µM
DLD-1 colon
  TGI: > 100 µM
DMS 114 small cell lung
  TGI: 79.2 µM
DMS 273 small cell lung
  TGI: > 100 µM
EKVX NSCLC
  TGI: > 100 µM
HCT-116 colon
  TGI: > 100 µM
HCT-15 colon
  TGI: > 100 µM
HL-60(TB) leukemia
  TGI: 28.2 µM
HOP-18 NSCLC
  TGI: > 100 µM
HT29 colon
  TGI: > 100 µM
IGROV1 ovarian
  TGI: > 100 µM
K-562 leukemia
  TGI: > 100 µM
KM12 colon
  TGI: > 100 µM
KM20L2 colon
  TGI: > 100 µM
LOX IMVI melanoma
  TGI: > 100 µM
LXFL 529 NSCLC
  TGI: > 100 µM
M19-MEL melanoma
  TGI: > 100 µM
MALME-3M melanoma
  TGI: > 100 µM
MOLT-4 leukemia
  TGI: > 100 µM
NCI-H23 lung
  TGI: > 100 µM
NCI-H460 lung
  TGI: > 100 µM
NCI-H522 lung
  TGI: > 100 µM
OVCAR-4 ovarian
  TGI: > 100 µM
OVCAR-5 ovarian
  TGI: > 100 µM
OVCAR-8 ovarian
  TGI: > 100 µM
RPMI-8226 leukemia
  TGI: 70.5 µM
RXF 393 renal
  TGI: > 100 µM
SF-268 CNS
  TGI: > 100 µM
SF-295 CNS
  TGI: > 100 µM
SF-539 CNS
  TGI: > 100 µM
SK-MEL-2 melanoma
  TGI: > 100 µM
SK-MEL-28 melanoma
  TGI: > 100 µM
SK-MEL-5 melanoma
  TGI: 28 µM
SK-OV-3 ovarian
  TGI: > 100 µM
SN12C renal
  TGI: > 100 µM
SNB-19 CNS
  TGI: > 100 µM
SNB-75 CNS
  TGI: 13.1 µM
SNB-78 CNS
  TGI: > 100 µM
SR leukemia
  TGI: 47.9 µM
SW-620 colon
  TGI: > 100 µM
TK-10 renal
  TGI: > 100 µM
U251 CNS
  TGI: > 100 µM
UACC-257 melanoma
  TGI: 80.6 µM
UACC-62 melanoma
  TGI: > 100 µM
UO-31 renal
  TGI: 63.4 µM

— PubChem BioAssay (NCI)
